Results reported in patent publication US10155788B2, “Cationic steroidal antimicrobial prodrug compositions and uses thereof” (BRIGHAM YOUNG UNIVERSITY, priority 2014, dated 2018).
In brackets after ≈: the same amount, converted by molar mass.

Legend:
[1] = system: ATCC 25923 strain of staphylococcus aureus; test: Minimum inhibitory concentration against staph A; assay type: cell-based; conditions: ATCC25923; staphylococcus aureus ATCC 25923
Protocol: The pharmacological analysis of the methane sulfonate prodrug of CSA-13 (CSA-13 MS) versus the free base CSA-13 compound was assessed for their antimicrobial properties against the ATCC 25923 strain of staphylococcus aureus (hereinafter “staph A”).

[2] = system: C57BL/6 female mice; test: Maximum Tolerated Dose study of CSA-192 MS, intravenous, in mice; assay type: in vivo; conditions: for mortality and abnormal clinical signs: 7 days observation
Source text: The objective of this study was to determine the Maximum Tolerated Dose (MTD) of CSA-192 MS following intravenous (i.v.) administration at various dose levels in C57BL/6 female mice. FIG. 2 is a graph showing CSA-192 MS Kinetics.
Immunocompetent C57BL/6 female mice weighing 16 to 20 g were obtained from the University of Sevilla's facility. The number of animals that were selected for use in this study was considered to be the minimum requirement to meet rational scientific endpoints.
One the first day of the study, mice were subjected to randomization and allocated to different groups, so that each group (G) contains 6 females. Each cage housed 6 mice. Each cage was identified by a cage card, with details like study item, species, strain, sex, number of animals, date, dose, and investigator name.
The study was conducted at four different dose levels. On day 1 of treatment all the animals in G1, G2, G3, and G4 groups were administered with CSA-192 MS at 4, 8, 16, and 32 mg/kg based on their body weight. Dose volumes were maintained at 0.2 mL for G1, G2, and G3. The dose volume for G4 was 0.32 mL.
More particularly, the test item was administered by intravenous route, at dose concentration of 4 mg/kg body weight for G1, 8 mg/kg body weight for G2, 16 mg/kg body weight for G3, and 32 mg/kg body weight G4 groups, respectively. Dose volumes were maintained at 0.2 mL for G1, G2, and G3. For group G4 the dose volume was 0.32 mL.
The first day they were checked immediately after dose administration, at 30 min, 1 hour, and every 4 hours, the following days twice a day. Mice were sacrificed on day 7 of the study period.

CCCCCCCCNCCC[C@@H](C)[C@H]1CC[C@H]2[C@@H]3[C@H](OCCCN)C[C@@H]4C[C@H](OCCCN)CC[C@]4(C)[C@H]3C[C@H](OCCCN)[C@]12C [CSA-13]
MIC [1]: 1.6 µg/mL (≈ 2.36 µM)

CCCCCCCCNC(=O)CC[C@@H](C)[C@H]1CC[C@H]2[C@@H]3[C@H](OCCCN)C[C@@H]4C[C@H](OCCCN)CC[C@]4(C)[C@H]3C[C@H](OCCCN)[C@]12C [CSA-192 MS]
mortality and abnormal clinical signs ([2]; 4.0 mg/kg body weight (G1), intravenously): no incidences of mortality and abnormal clinical signs
mortality and abnormal clinical signs ([2]; 8.0 mg/kg body weight (G2), intravenously): no incidences of mortality and abnormal clinical signs
clinical signs ([2]; 16.0 mg/kg body weight (G3), intravenously, immediately after administration, disappeared after an hour, rest of G3 without signs): one animal showed signs of somnolence
mortality and abnormal clinical signs ([2]; 32.0 mg/kg body weight (G4), intravenously): no incidences of mortality and abnormal clinical signs
Clinical observations/No of animals per group ([2]; G1 4 mg/Kg i.v., Day 1): 0/6
No of animals found dead/No. of animals per group ([2]; G1 4 mg/Kg i.v., Day 1): 0/6
Clinical observations/No of animals per group ([2]; G1 4 mg/Kg i.v., Day 2): 0/6
No of animals found dead/No. of animals per group ([2]; G1 4 mg/Kg i.v., Day 2): 0/6
Clinical observations/No of animals per group ([2]; G1 4 mg/Kg i.v., Day 3): 0/6
No of animals found dead/No. of animals per group ([2]; G1 4 mg/Kg i.v., Day 3): 0/6
Clinical observations/No of animals per group ([2]; G1 4 mg/Kg i.v., Day 4): 0/6
No of animals found dead/No. of animals per group ([2]; G1 4 mg/Kg i.v., Day 4): 0/6
Clinical observations/No of animals per group ([2]; G1 4 mg/Kg i.v., Day 5): 0/6
No of animals found dead/No. of animals per group ([2]; G1 4 mg/Kg i.v., Day 5): 0/6
Clinical observations/No of animals per group ([2]; G1 4 mg/Kg i.v., Day 6): 0/6
No of animals found dead/No. of animals per group ([2]; G1 4 mg/Kg i.v., Day 6): 0/6
Clinical observations/No of animals per group ([2]; G1 4 mg/Kg i.v., Day 7): 0/6
No of animals found dead/No. of animals per group ([2]; G1 4 mg/Kg i.v., Day 7): 0/6
Clinical observations/No of animals per group ([2]; G2 8 mg/kg i.v., Day 1): 0/6
No of animals found dead/No. of animals per group ([2]; G2 8 mg/kg i.v., Day 1): 0/6
Clinical observations/No of animals per group ([2]; G2 8 mg/kg i.v., Day 2): 0/6
No of animals found dead/No. of animals per group ([2]; G2 8 mg/kg i.v., Day 2): 0/6
Clinical observations/No of animals per group ([2]; G2 8 mg/kg i.v., Day 3): 0/6
No of animals found dead/No. of animals per group ([2]; G2 8 mg/kg i.v., Day 3): 0/6
Clinical observations/No of animals per group ([2]; G2 8 mg/kg i.v., Day 4): 0/6
No of animals found dead/No. of animals per group ([2]; G2 8 mg/kg i.v., Day 4): 0/6
Clinical observations/No of animals per group ([2]; G2 8 mg/kg i.v., Day 5): 0/6
No of animals found dead/No. of animals per group ([2]; G2 8 mg/kg i.v., Day 5): 0/6
Clinical observations/No of animals per group ([2]; G2 8 mg/kg i.v., Day 6): 0/6
No of animals found dead/No. of animals per group ([2]; G2 8 mg/kg i.v., Day 6): 0/6
Clinical observations/No of animals per group ([2]; G2 8 mg/kg i.v., Day 7): 0/6
No of animals found dead/No. of animals per group ([2]; G2 8 mg/kg i.v., Day 7): 0/6
Clinical observations/No of animals per group ([2]; G3 16 mg/kg i.v., Day 1): 1/6
No of animals found dead/No. of animals per group ([2]; G3 16 mg/kg i.v., Day 1): 0/6
Clinical observations/No of animals per group ([2]; G3 16 mg/kg i.v., Day 2): 0/6
No of animals found dead/No. of animals per group ([2]; G3 16 mg/kg i.v., Day 2): 0/6
Clinical observations/No of animals per group ([2]; G3 16 mg/kg i.v., Day 3): 0/6
No of animals found dead/No. of animals per group ([2]; G3 16 mg/kg i.v., Day 3): 0/6
Clinical observations/No of animals per group ([2]; G3 16 mg/kg i.v., Day 4): 0/6
No of animals found dead/No. of animals per group ([2]; G3 16 mg/kg i.v., Day 4): 0/6
Clinical observations/No of animals per group ([2]; G3 16 mg/kg i.v., Day 5): 0/6
No of animals found dead/No. of animals per group ([2]; G3 16 mg/kg i.v., Day 5): 0/6
Clinical observations/No of animals per group ([2]; G3 16 mg/kg i.v., Day 6): 0/6
No of animals found dead/No. of animals per group ([2]; G3 16 mg/kg i.v., Day 6): 0/6
Clinical observations/No of animals per group ([2]; G3 16 mg/kg i.v., Day 7): 0/6
No of animals found dead/No. of animals per group ([2]; G3 16 mg/kg i.v., Day 7): 0/6
Clinical observations/No of animals per group ([2]; G4 32 mg/kg i.v., Day 1): 0/6
No of animals found dead/No. of animals per group ([2]; G4 32 mg/kg i.v., Day 1): 0/6
Clinical observations/No of animals per group ([2]; G4 32 mg/kg i.v., Day 2): 0/6
No of animals found dead/No. of animals per group ([2]; G4 32 mg/kg i.v., Day 2): 0/6
Clinical observations/No of animals per group ([2]; G4 32 mg/kg i.v., Day 3): 0/6
No of animals found dead/No. of animals per group ([2]; G4 32 mg/kg i.v., Day 3): 0/6
Clinical observations/No of animals per group ([2]; G4 32 mg/kg i.v., Day 4): 0/6
No of animals found dead/No. of animals per group ([2]; G4 32 mg/kg i.v., Day 4): 0/6
Clinical observations/No of animals per group ([2]; G4 32 mg/kg i.v., Day 5): 0/6
No of animals found dead/No. of animals per group ([2]; G4 32 mg/kg i.v., Day 5): 0/6
Clinical observations/No of animals per group ([2]; G4 32 mg/kg i.v., Day 6): 0/6
No of animals found dead/No. of animals per group ([2]; G4 32 mg/kg i.v., Day 6): 0/6
Clinical observations/No of animals per group ([2]; G4 32 mg/kg i.v., Day 7): 0/6
No of animals found dead/No. of animals per group ([2]; G4 32 mg/kg i.v., Day 7): 0/6
treatment related change in body weight ([2]; all groups (4, 8, 16, 32 mg/kg i.v.)): No treatment related change in body weight was observed
mortality ([2]; any of the groups (4, 8, 16, 32 mg/kg i.v.), 7 days): no mortality was observed
